We go through 2 molecules from patent publication US8211901B2, “Naphthamide derivatives as multi-target protein kinase inhibitors and histone deacetylase inhibitors” (Shenzhen Chipscreen Biosciences Ltd., priority 2009, dated 2012).

The test system of data set [1] is Class I HDAC. Description: P21 reporter gene assay in HeLa cells. As to conditions: 24 hours. It is filed as cell-based. As for the experimental part: HDAC subtype selectivity inhibition assay of tested compounds was carried out by several reporter gene assays experiments. Briefly, HeLa cells were seeded in 96-well plates the day before transfection to give a confluence of 50-80%. Cells were transfected with one of reporter gene plasmid containing a promoter sequence or response element upstream of a luciferase gene construct using FuGene6 transfection reagent according to the manufacturer's instruction (Roche). The promoters or response elements including p21-promoter was fused upstream to the luciferase gene reporter construct. For normalizing the transfection efficiency, a GFP expression plasmid was cotransfected. Cells were allowed to express protein for 24 hours followed by addition of individual compounds or the vehicle (DMSO). 24 hours later the cells were harvested, and the luciferase assay and GFP assay were performed using corresponding assay kits according to the manufacturer's instructions (Promega).
(In a reporter assay the amount or activity of a reporter protein is the signal.)

Data set [2] relates to HCT-8. As to the kind of experiment: Tumor cell proliferation (MTS), HCT-8. It counts as cell-based. As to conditions: Homo sapiens, 72 hours, complete medium. As for the experimental part: (§1) Measurement of In Vivo Cell Proliferation:
(§2) Tumor cells were trypsinized and plated into 96-well plates at 3,000 per well and incubated in complete medium with 10% FBS for 24 hours. Compounds were added over a final concentration range of 100 μmol/L to 100 nmol/L in 0.1% DMSO and incubated for 72 hours in complete medium. The effects on proliferation were determined by addition of MTS reagent (Promega) according to the instruction, incubation for 2 hours at 37° C. in CO2 incubator, and record the absorbance at 490 nm using an ELISA plate reader.
(§3) Human Cell Lines are Listed Below:
HCT-8: Ileocecal colorectal adenocarcinoma

Data set [3] deals with T1, human PDGFRβ (Homo sapiens, UniProt P09619).
T1 construct: expressed in transfected cells
As to the kind of experiment: PDGF dependent cell proliferation (MTS). As to conditions: PDGFRβ NIH-3T3 cells, PDGF BB 50 ng/ml, 72 hours, serum-free medium; read-out: GI50 nM (PDGF ligand-dependent cell proliferation). It is filed as cell-based. On the procedure:
PDGF Dependent Cell Proliferation:
NIH-3T3 mouse fibroblasts cell line engineered to stably express human PDGFIRβ was constructed and used to evaluate PDGF dependent cell proliferation. PDGFRβ NIH-3T3 cells were plated into 96-well plates at 5,000 per well and incubated with serum-free medium for 24 hours. Compounds and PDGF BB (50 ng/ml) were added and incubated for 72 hours in serum-free medium. The effects on proliferation were determined by addition of MTS reagent (Promega) according to the instruction, incubation for 2 hours at 37° C. in CO2 incubator, and record the absorbance at 490 nm using an ELISA plate reader.

The subject of data set [4] is MCF-7. Description: Tumor cell proliferation (MTS), MCF-7. As to conditions: Homo sapiens, MCF7; 72 hours, complete medium. It is filed as cell-based. As for the experimental part:
as §1, §2, §3
MCF-7: Mammary gland adenocarcinoma

Data set [5] concerns HUVEC cells. Description: VEGF dependent cell proliferation (MTS). As to conditions: Homo sapiens, VEGF 165 50 ng/ml, 72 hours, serum-free medium, read-out: GI50 nM (VEGF ligand-dependent cell proliferation). It counts as cell-based. As for the experimental part:
VEGF Dependent Cell Proliferation:
HUVEC cells were plated into 96-well plates at 6,000 per well and incubated with serum-free medium for 2 hours. Compounds and VEGF 165 (50 ng/ml) were added and incubated for 72 hours in serum-free medium. The effects on proliferation were determined by addition of MTS reagent (Promega) according to the instruction, incubation for 2 hours at 37° C. in CO2 incubator, and record the absorbance at 490 nm using an ELISA plate reader.

Data set [6] relates to A-498. Description: Tumor cell proliferation (MTS), A-498. It is filed as cell-based. As to conditions: Homo sapiens, A498; 72 hours, complete medium. On the procedure:
as §1, §2

Data set [7] deals with total HDAC enzyme (HeLa extract). Description: In vitro inhibition of total HDAC enzyme activity (HDAC Fluorimetric Assay/Drug Discovery Kit). It is filed as biochemical. On the procedure:
Measurement of In Vitro Inhibition of Total HDAC Enzyme Activity:
The in vitro inhibition of total HDAC enzyme was determined by HDAC Fluorimetric Assay/Drug Discovery Kit (BIOMOL) according to manufacture's instruction. • 1. Add Assay buffer, diluted trichostatin A or test inhibitor to appropriate wells of the microtiter plate. Following table lists examples of various assay types and the additions required for each test.
• 2. Add diluted HeLa extract or other HDAC sample to all wells except those that are to be “No Enzyme Controls” (Blank). • 3. Allow diluted Fluor de Lys™ Substrate and the samples in the microtiter plate to equilibrate to assay temperature (25° C.). • 4. Initiate HDAC reactions by adding diluted substrate (25 μl) to each well and mixing thoroughly. • 5. Allow HDAC reactions to proceed for desired length of time and then stop them by addition of Fluor de Lys™ Developer (50 μl). Incubate plate at room temperature (25° C.) for 10-15 min. • 6. Read samples in a microtiter-plate reading fluorimeter capable of excitation at a wavelength in the range 350-380 nm and detection of emitted light in the range 440-460 nm. Measurement of In Vivo Inhibition of HDAC Subtype Activity: […]

For data set [8], the system named is A549. Description: Tumor cell proliferation (MTS), A549. It is filed as cell-based. As to conditions: Homo sapiens, 72 hours, complete medium. As for the experimental part: as §1, §2, §3
A549: Non small cell lung carcinoma

Data set [9] deals with Bel-7402. As to the kind of experiment: Tumor cell proliferation (MTS), Bel-7402. As to conditions: Homo sapiens, 72 hours, complete medium. It is filed as cell-based. On the procedure: as §1, §2, §3
Bel-7402: Hepatocellular carcinoma

Data set [10] is described as follows: Body weight in HCT-8 xenograft study (Example 55). It is filed as in vivo, nu/nu mice. On the procedure: The antitumor activity of compound 33 and compound 37 were measured in human HCT-8 colon cancer xenograft model. The female nu/nu mice of 18˜20 g were fed by normal diet for 3 days. Then the cultured HCT-8 human colon cancer cells were implanted into the armpit of 50 mice. […] One group was treated with vehicle. One group was treated with sutent, the positive control drug. Two groups were treated with compound 33. The other two groups were treated with compound 37. Compound 33 was administered twice a day with an interval of 6 hours. Other drugs and vehicle were administered once a day. Each group was dosed orally for 20 days. Tumor volumes as established by caliper measurements were recorded twice per week, along with body weights. At the end of study, the mice were killed, and tumors were weighed. The tumor growth inhibition of each group was calculated using the formula {[(the average tumor weight of vehicle group)−(the average tumor weight of drug group)]/(the average tumor weight of vehicle group)}×100%.

[11] abbreviates: 30 × 2 mg/kg orally twice a day with an interval of 6 hours for 20 days.
Setting [12] is: 60 × 2 mg/kg orally twice a day with an interval of 6 hours for 20 days.

T1 sequence (P09619 33-1106): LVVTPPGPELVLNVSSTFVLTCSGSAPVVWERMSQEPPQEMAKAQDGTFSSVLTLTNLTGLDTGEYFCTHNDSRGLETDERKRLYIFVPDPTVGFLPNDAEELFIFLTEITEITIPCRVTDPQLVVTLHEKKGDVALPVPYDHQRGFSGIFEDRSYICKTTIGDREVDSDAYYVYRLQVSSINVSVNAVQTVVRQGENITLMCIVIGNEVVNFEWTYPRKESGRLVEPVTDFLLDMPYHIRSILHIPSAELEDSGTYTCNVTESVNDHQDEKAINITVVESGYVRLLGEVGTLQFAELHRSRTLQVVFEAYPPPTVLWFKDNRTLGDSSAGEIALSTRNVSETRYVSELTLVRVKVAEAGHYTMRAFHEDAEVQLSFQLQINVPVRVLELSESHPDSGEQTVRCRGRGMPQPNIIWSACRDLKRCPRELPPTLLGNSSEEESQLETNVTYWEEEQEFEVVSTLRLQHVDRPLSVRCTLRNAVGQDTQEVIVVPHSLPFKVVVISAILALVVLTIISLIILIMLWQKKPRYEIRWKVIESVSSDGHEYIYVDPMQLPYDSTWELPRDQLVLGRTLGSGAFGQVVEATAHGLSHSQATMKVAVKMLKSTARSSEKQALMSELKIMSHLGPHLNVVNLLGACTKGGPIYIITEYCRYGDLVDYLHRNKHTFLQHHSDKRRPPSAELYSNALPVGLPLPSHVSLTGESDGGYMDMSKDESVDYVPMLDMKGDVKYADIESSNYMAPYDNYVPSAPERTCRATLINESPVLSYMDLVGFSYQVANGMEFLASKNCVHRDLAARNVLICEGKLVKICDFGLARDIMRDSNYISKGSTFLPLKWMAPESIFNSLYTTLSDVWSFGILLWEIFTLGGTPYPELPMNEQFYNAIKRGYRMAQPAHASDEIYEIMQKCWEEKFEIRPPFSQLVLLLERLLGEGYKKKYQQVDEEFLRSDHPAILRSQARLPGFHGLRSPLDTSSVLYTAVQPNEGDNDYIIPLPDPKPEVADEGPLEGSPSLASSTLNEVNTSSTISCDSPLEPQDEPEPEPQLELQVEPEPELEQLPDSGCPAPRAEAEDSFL

`COc1ccc2c(Oc3ccc4c(C(=O)Nc5ccccc5N)cccc4c3)ccnc2c1` [Example 31, N-(2-aminophenyl)-6-(7-methoxyquinolin-4-yloxy)-1-naphthamide]: the “Class I HDAC (P21 reporter assay) Fold Induction at 10 μM” value in [1] amounted to 1.6 Fold. The GI50 in data set [2] worked out at 6.6 µM; in data set [3], 46 nM; in data set [4], 10.2 µM; in data set [5], 5 nM; in data set [6], 9.5 µM; in data set [8], 17.3 µM. The GI50 in [9] stood at 30 µM. Moreover, in [7], the “% inhibition of total HDAC enzyme activity at 30 μM” value is 10.1%.

As to `COc1ccc2c(Oc3ccc4c(C(=O)NCc5ccc(C(=O)Nc6ccccc6N)cc5)cccc4c3)ccnc2c1` [Example 33, N-(4-((2-aminophenyl)carbamoyl)benzyl)-6-(7-methoxyquinolin-4-yloxy)-1-naphthamide], the “Class I HDAC (P21 reporter assay) Fold Induction at 10 μM” value in data set [1] was found to be 2.8 Fold. The “Body weight (g) end” value was determined as 22.6 ± 1.6 g in data set [10] (setting [11]) and 19.0 ± 1.8 g in data set [10] (setting [12]). Further, the “Body weight (g) start” value in data set [10] (setting [11]) is recorded as 21.1 ± 1.2 g; in data set [10] (setting [12]) it was 20.1 ± 0.9 g. Moreover, the GI50 in data set [2] was 1.5 µM; in data set [3], 300 nM; in [4], 2 µM; in [5], 8 nM; in data set [6], 1.9 µM; in data set [8], 2.1 µM. In data set [9], this molecule came in with a GI50 of 2.8 µM. Moreover, the “% inhibition of total HDAC enzyme activity at 30 μM” value in data set [7] is on record as 39.1%.
